Converted amounts (≈) assume the structure as drawn. Read-outs that look alike come from different tables or passages of the source.
Columns and labels:
[1] = test system: tested bacterial strains (Gram positive or Gram negative: S. aureus, P. aeruginosa, E. coli); experiment: Antibacterial MIC range over the tested bacterial strains; type: cell-based; conditions: range over Gram positive and Gram negative strains
Protocol: (§1) . Standard strains of Staphylococcus aureus (ATCC 6538), Pseudomonas aeruginosa (ATCC 10,145), and Escherichia coli (ATCC 8739) were obtained from microbiological resource center, Faculty of Agriculture, Ain Shams University, Cairo, Egypt. All isolates were maintained at -70 °C in Trypticase Soya Broth (TSB, Becton, and Dickinson) with 10% glycerol. Prior to inoculation, all isolates were subcultured at 37 °C for 24 h on Trypticase Soya Agar (TSA, Becton, and Dickinson) and TSB, respectively.
The plates were rotated slowly to ensure uniform distribution of the microorganisms and then allowed to solidify on a flat surface. After solidification, four equidistant and circular wells of 10 mm diameter were carefully punched using a sterile cork bore. Twofold serial dilutions of the tested compounds using DMSO were performed. An equal volume of 100µL of each dilution was applied separately to each well in three replicates using a micropipette. All plates were incubated at 37 °C for 24 h. The inhibition zones were measured, and their average was calculated. The MIC was calculated by plotting the natural logarithm of the concentration of each dilution of the tested compounds against the square of zones of inhibition, and a regression line was drawn through the points then the antilogarithm of the intercept on the logarithm of concentration axis gave the MIC value.

[2] = test system: S. aureus (ATCC 6538); experiment: Antibacterial MIC, standard agar cup diffusion method; type: cell-based, Staphylococcus aureus; conditions: Staphylococcus aureus, ATCC6538, 37 °C, 24 h, read-out: MIC S. aureus (Gram-positive)
Protocol: as §1, with “The antibacterial and antifungal activities of compounds, ketone 1, 2a-j, and 5a-i were evaluated in vitro against S. aureus (ATCC 6538), P. aeruginosa (ATCC 10,145), E. coli (ATCC 8739), and C. albicans (ATCC 10,231). […] Standard” for “. Standard”
(§2) The plates were rotated slowly to ensure uniform distribution of the microorganisms and then allowed to solidify on a flat surface. After solidification, four equidistant and circular wells of 10 mm diameter were carefully punched using a sterile cork bore. Twofold serial dilutions of the tested compounds using DMSO were performed. An equal volume of 100µL of each dilution was applied separately to each well in three replicates using a micropipette. All plates were incubated at 37 °C for 24 h. The inhibition zones were measured, and their average was calculated.

[3] = test system: P. aeruginosa (ATCC 10,145); experiment: as above; type: cell-based; conditions: Pseudomonas aeruginosa, ATCC 10145, 37 °C, 24 h, read-out: MIC P. aeruginosa (Gram-negative)
Protocol: as §1, with “The antibacterial and antifungal activities of compounds, ketone 1, 2a-j, and 5a-i were evaluated in vitro against S. aureus (ATCC 6538), P. aeruginosa (ATCC 10,145), E. coli (ATCC 8739), and C. albicans (ATCC 10,231). […] Standard” for “. Standard”
as §2

[4] = test system: E. coli (ATCC 8739); experiment: as above; type: cell-based; conditions: Escherichia coli, ATCC8739, 37 °C, 24 h, read-out: MIC E. coli (Gram-negative)
Protocol: as §1, with “The antibacterial and antifungal activities of compounds, ketone 1, 2a-j, and 5a-i were evaluated in vitro against S. aureus (ATCC 6538), P. aeruginosa (ATCC 10,145), E. coli (ATCC 8739), and C. albicans (ATCC 10,231). […] Standard” for “. Standard”
as §2

[5] = test system: C. albicans (ATCC 10,231); experiment: Antifungal MIC, agar cup diffusion method; type: cell-based, Candida albicans; conditions: Sabouraud agar, 37 °C; for MIC: Candida albicans, ATCC 10,231, 24 h, read-out: MIC C. albicans (Fungi); for MIC C. albicans (Fungi): 24 h
Protocol: The antibacterial and antifungal activities of compounds, ketone 1, 2a-j, and 5a-i were evaluated in vitro against S. aureus (ATCC 6538), P. aeruginosa (ATCC 10,145), E. coli (ATCC 8739), and C. albicans (ATCC 10,231). […] The antifungal activity of compounds 1, 2a-j, and 5a-i and ketoconazole were determined according to the agar cup diffusion method at Deraya University, Faculty of Pharmacy, Department of Microbiology.
Fungal strains and culture conditions. […] Standard strain of Candida albicans (ATCC 10,231) was obtained from microbiological resource center, Faculty of Agriculture, Ain Shams University, Cairo, Egypt. The isolate was maintained at -70 °C in Trypticase Soya Broth (TSB, Becton, and Dickinson) with 10% glycerol. Prior to inoculation, the isolate was subcultured at 37 °C for 24 h on Trypticase Soya Agar (TSA, Becton, and Dickinson) and TSB, respectively.
as §2

[6] = biological target: S. aureus DNA gyrase (Staphylococcus aureus, UniProt P0A0K8+P20831); experiment: Staphylococcus aureus DNA gyrase supercoiling assay; type: biochemical; conditions: supercoiling of relaxed pBR322, 37 °C, 30 min; read-out: S. aureus DNA gyrase IC50 ± SD
Chain of S. aureus DNA gyrase (P20831 whole entry): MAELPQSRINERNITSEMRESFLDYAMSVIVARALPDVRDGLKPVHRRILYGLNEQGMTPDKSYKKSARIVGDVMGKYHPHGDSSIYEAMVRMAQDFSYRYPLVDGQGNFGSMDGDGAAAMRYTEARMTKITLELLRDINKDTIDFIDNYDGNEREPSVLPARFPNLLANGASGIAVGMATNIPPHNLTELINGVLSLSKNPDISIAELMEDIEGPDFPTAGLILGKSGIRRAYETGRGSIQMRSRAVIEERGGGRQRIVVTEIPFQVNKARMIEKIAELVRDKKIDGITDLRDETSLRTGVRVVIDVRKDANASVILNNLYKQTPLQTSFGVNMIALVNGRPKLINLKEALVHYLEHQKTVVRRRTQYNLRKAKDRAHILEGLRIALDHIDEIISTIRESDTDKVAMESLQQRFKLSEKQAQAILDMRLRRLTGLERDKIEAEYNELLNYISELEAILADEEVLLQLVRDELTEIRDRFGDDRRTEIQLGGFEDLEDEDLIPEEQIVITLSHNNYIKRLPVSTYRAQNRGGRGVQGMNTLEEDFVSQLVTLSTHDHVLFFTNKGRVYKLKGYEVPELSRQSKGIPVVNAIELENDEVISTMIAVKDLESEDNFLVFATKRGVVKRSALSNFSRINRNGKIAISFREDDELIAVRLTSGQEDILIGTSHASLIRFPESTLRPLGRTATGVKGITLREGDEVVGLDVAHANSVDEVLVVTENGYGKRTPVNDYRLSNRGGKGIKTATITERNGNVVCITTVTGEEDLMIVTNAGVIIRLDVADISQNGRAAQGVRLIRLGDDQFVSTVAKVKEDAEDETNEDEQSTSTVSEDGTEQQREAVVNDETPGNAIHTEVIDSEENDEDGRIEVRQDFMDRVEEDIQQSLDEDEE
Chain of S. aureus DNA gyrase (P0A0K8 whole entry): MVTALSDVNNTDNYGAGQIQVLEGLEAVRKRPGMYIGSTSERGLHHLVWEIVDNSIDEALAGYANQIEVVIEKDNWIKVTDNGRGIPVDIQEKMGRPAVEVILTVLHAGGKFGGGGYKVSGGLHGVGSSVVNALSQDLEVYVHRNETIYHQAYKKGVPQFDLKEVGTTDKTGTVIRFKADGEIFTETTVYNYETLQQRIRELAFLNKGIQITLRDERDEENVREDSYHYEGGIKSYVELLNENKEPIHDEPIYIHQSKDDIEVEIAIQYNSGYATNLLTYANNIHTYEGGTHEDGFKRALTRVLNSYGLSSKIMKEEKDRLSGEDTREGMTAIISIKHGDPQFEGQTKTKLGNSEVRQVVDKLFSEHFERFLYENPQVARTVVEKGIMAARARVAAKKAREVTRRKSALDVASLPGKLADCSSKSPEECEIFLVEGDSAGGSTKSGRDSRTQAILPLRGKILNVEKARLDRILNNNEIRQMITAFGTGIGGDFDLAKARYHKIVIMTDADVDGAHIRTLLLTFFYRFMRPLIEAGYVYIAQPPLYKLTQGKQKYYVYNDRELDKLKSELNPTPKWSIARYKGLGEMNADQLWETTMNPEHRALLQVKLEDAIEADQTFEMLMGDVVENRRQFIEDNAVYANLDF
Protocol: As antibacterial agents, fluoroquinolones act by targeting and inhibiting DNA gyrase (topo II) which is an essential enzyme involved in the DNA replication process.
Staphylococcus aureus DNA gyrase was incubated at 37 °C for 30 min in a total reaction volume of 30 μl containing 40 mM HEPES. KOH (pH 7.6), 10 mM magnesium acetate, 10 mM DTT, 2 mM ATP, 500 mM potassium glutamate, 0.05 mg/ml albumin and Relaxed pBR322. DNA gyrase supercoiling reactions catalyzed by S. aureus gyrase, Stop reaction by adding 30 μL of STEB and 30 μL of chloroform/isoamyl alcohol (v:v, 24:1),and then Vortex briefly ~ 5 secs and centrifuge for 1 min. after which 20 µL of this was loaded on a 1% agarose gel that was then run at ~ 75 V for approximately 2 h. The gel was stained by (0.5 mg/L) ethidium bromide in water. Fluorescent images were taken at a wavelength of 300 nm on a UV transilluminator imaging system. The fluorescence intensity of the supercoiled plasmid reaction product was quantitated using ImagQuant software (Molecular Dynamics).

[7] = physchem; conditions: pH 7.8
Protocol: The n-octanol/water apparent partition coefficient at the isoelectric point (or distribution constant) was measured by using the traditional shake-flask technique. The pH of the aqueous buffer was first adjusted to isoelectric point of the compound. The n-octanol and aqueous phases were then mutually saturated before the measurement. […] The samples were agitated for 5h at water bath shaker thermostatized at 25 ± 1^◦C and 100 rpm. The concentration of the solute was determined in the aqueous and organic phases at the isoelectric point by UV spectroscopy the log p value was calculated as follows: […].

[8] = Solubility determination in phosphate buffer; type: physicochemical; conditions: aqueous buffer, thermodynamic from solid
Protocol: A sample of drug was accurately weighed and dissolved in 100 ml of distilled water to prepare 100 mcg/ml stock solutions. Appropriate dilution of the stock solution with phosphate buffer pH 6.8 and 7.8 was then made to prepare a working solution of 40mcg/ml.
After determination of λ max of drug, a calibration curve was constructed by preparing solutions containing different concentrations of (1–5 mcg/ml) from stock solution after appropriate dilution with phosphate buffer pH 6.8. The UV absorbance of the prepared sample solutions were measured at the predetermined λ max using phosphate buffer pH 6.8 as a blank.
Aqueous solubility of the complexes was measured as a function of pH. An excess of each derivative was placed into suitable stoppered containers. […] The samples were immersed in a water bath thermostatized at 37 ± 1^◦C and 100 rpm and periodically shaken for 48 h. Once the equilibrium was reached, the pH of the supernatant was regarded.

[9] = phosphate buffer pH 6.8, 37 °C, read-out: Solubility pH 6.8
[10] = phosphate buffer pH 7.8, 37 °C, read-out: Solubility pH 7.8

## O=C(O)c1cn(C2CC2)c2cc(N3CCNCC3)c(F)cc2c1=O [Ciprofloxacin, reference compound]
[1]
  MIC range against the tested bacterial strains: 0.15 to 3.25 µg/mL
[2]
  MIC: 3.25 µg/mL (≈ 9.81 µM)
[3]
  MIC: 0.22 µg/mL (≈ 0.664 µM)
[4]
  MIC: 0.15 µg/mL (≈ 0.453 µM)

## N#Cc1c(-c2ccc(F)cc2)nc(SCC(=O)N2CCN(c3cc4c(cc3F)c(=O)c(C(=O)O)cn4C3CC3)CC2)[nH]c1=O [Compound 5e, 7-(4-(2-((4-(4-Fluorophenyl)-5-cyano-6-oxo-1,6-dihydropyrimidin-2-yl)thio)acetyl)piperazin-1-yl)-1-cyclopropyl-6-fluoro-4-oxo-1,4-dihydroquinoline-3-carboxylic acid]
[5]
  MIC: 2.03 to 3.89 µg/mL (≈ 3.28 to 6.29 µM)
  MIC C. albicans (Fungi): 2.51 µg/mL (≈ 4.06 µM)
other
  melting point: 242 to 245 °C
[2]
  MIC: 0.78 µg/mL (≈ 1.26 µM)
[6]
  IC50: 1010 ± 50 nM
[3]
  MIC: 3.25 µg/mL (≈ 5.25 µM)
[4]
  MIC: 0.52 µg/mL (≈ 0.841 µM)

## Cc1ccc(-c2nc(SCC(=O)N3CCN(c4cc5c(cc4F)c(=O)c(C(=O)O)cn5C4CC4)CC3)[nH]c(=O)c2C#N)cc1 [Compound 5f]
[5]
  MIC: > 100 µg/mL
other
  melting point: 264 to 267 °C
[2]
  MIC: 4.79 µg/mL (≈ 7.79 µM)
[6]
  IC50: 3500 ± 190 nM
[3]
  MIC: 2.95 µg/mL (≈ 4.8 µM)
[4]
  MIC: 3.89 µg/mL (≈ 6.33 µM)

## N#Cc1c(-c2ccc(Cl)cc2)nc(SCC(=O)N2CCN(c3cc4c(cc3F)c(=O)c(C(=O)O)cn4C3CC3)CC2)[nH]c1=O [Compound 5c, 7-(4-(2-((4-(4-Chlorophenyl)-5-cyano-6-oxo-1,6-dihydropyrimidin-2-yl)thio)acetyl)piperazin-1-yl)-1-cyclopropyl-6-fluoro-4-oxo-1,4-dihydroquinoline-3-carboxylic acid]
[5]
  MIC: 2.03 to 3.89 µg/mL (≈ 3.2 to 6.13 µM)
  MIC C. albicans (Fungi): 2.87 µg/mL (≈ 4.52 µM)
other
  melting point: 253 to 256 °C
[2]
  MIC: 0.58 µg/mL (≈ 0.913 µM)
[6]
  IC50: 1570 ± 80 nM
[3]
  MIC: 2.04 µg/mL (≈ 3.21 µM)
[4]
  MIC: 1.03 µg/mL (≈ 1.62 µM)

## COc1ccc(-c2nc(SCC(=O)N3CCN(c4cc5c(cc4F)c(=O)c(C(=O)O)cn5C4CC4)CC3)[nH]c(=O)c2C#N)cc1 [Compound 5g, 7-(4-(2-((5-Cyano-4-(4-methoxyphenyl)-6-oxo-1,6-dihydropyrimidin-2-yl)thio)acetyl)piperazin-1-yl)-1-cyclopropyl-6-fluoro-4-oxo-1,4-dihydroquinoline-3-carboxylic acid]
[5]
  MIC: > 100 µg/mL
other
  melting point: 239 to 242 °C
[2]
  MIC: 0.28 µg/mL (≈ 0.444 µM)
[6]
  IC50: 7590 ± 400 nM
[7]
  Lipophilicity (log p): − 0.09
[8]; [9]
  solubility at 48 h: 740 µg/mL (≈ 1170 µM)
[8]; [10]
  solubility at 48 h: 900 µg/mL (≈ 1430 µM)
[3]
  MIC: 23.1 µg/mL (≈ 36.7 µM)
[4]
  MIC: 14.2 µg/mL (≈ 22.6 µM)

## N#Cc1c(-c2ccc(Br)cc2)nc(SCC(=O)N2CCN(c3cc4c(cc3F)c(=O)c(C(=O)O)cn4C3CC3)CC2)[nH]c1=O [Compound 5d, 7-(4-(2-((4-(4-Bromophenyl)-5-cyano-6-oxo-1,6-dihydropyrimidin-2-yl)thio)acetyl)piperazin-1-yl)-1-cyclopropyl-6-fluoro-4-oxo-1,4-dihydroquinoline-3-carboxylic acid]
[5]
  MIC: 36.1 µg/mL (≈ 53.2 µM)
other
  melting point: 284 to 285 °C
[2]
  MIC: 8.14 µg/mL (≈ 12 µM)
[3]
  MIC: 12.3 µg/mL (≈ 18.1 µM)
[4]
  MIC: 42.2 µg/mL (≈ 62.1 µM)

## O=C(/C=C/c1ccc(Cl)cc1)c1ccc(NC(=O)N2CCN(c3cc4c(cc3F)c(=O)c(C(=O)O)cn4C3CC3)CC2)cc1 [Compound 2c]
[1]
  MIC range against the tested bacterial strains: 0.06 to 1.53 µg/mL
[5]
  MIC: 2.03 to 3.89 µg/mL (≈ 3.3 to 6.32 µM)
  MIC C. albicans (Fungi): 3.89 µg/mL (≈ 6.32 µM)
[2]
  MIC: 0.67 µg/mL (≈ 1.09 µM)
[6]
  IC50: 3000 ± 160 nM
[7]
  logD: 0.07
[8]; [9]
  solubility at 48 h: 130 µg/mL (≈ 211 µM)
[8]; [10]
  solubility at 48 h: 150 µg/mL (≈ 244 µM)
[3]
  MIC: 1.03 µg/mL (≈ 1.67 µM)
[4]
  MIC: 0.34 µg/mL (≈ 0.553 µM)

## O=C(/C=C/c1cccc(Cl)c1)c1ccc(NC(=O)N2CCN(c3cc4c(cc3F)c(=O)c(C(=O)O)cn4C3CC3)CC2)cc1 [Compound 2b]
[1]
  MIC range against the tested bacterial strains: 0.06 to 1.53 µg/mL
[5]
  MIC: 15.2 µg/mL (≈ 24.8 µM)
[2]
  MIC: 0.06 µg/mL (≈ 0.0976 µM)
[6]
  IC50: 231 ± 10 nM
[7]
  logD: 0.31
[8]; [9]
  solubility at 48 h: 160 µg/mL (≈ 260 µM)
[8]; [10]
  solubility at 48 h: 180 µg/mL (≈ 293 µM)
[3]
  MIC: 0.64 µg/mL (≈ 1.04 µM)
[4]
  MIC: 0.18 µg/mL (≈ 0.293 µM)
